One assay has as its target human NK-2 receptor (Homo sapiens (Human), UniProt P21452). Put plainly: Selectivity assay: [125I]-Neurokinin A binding, human NK-2 receptor. Particulars: 0.1 nM [125I]-Neurokinin A, CHO membranes; read-out: hNK-2 (Ki). Here is the method: The affinity of compounds of the invention for the NK-2 receptor was evaluated in CHO recombinant cells which express the human NK-2 receptor. Membrane suspensions were prepared from these cells. […] Binding assays were performed in a 25 mM HEPES/1 mM CaCl2)/5 mM MgCl2/0.5% BSA/10 μg/ml saponin, at pH 7.4. […] The radioactivity retained on the filters was measured by using the TopCount-NXT reader (Packard).

For assay [1], the system named is hot flashes in postmenopausal women. Nature of the assay: Phase 2a clinical trial, menopausal hot flashes. It counts as in vivo, human. As for the experimental part: Clinical Evaluation of compound n^o 5 for the Treatment of Menopausal Hot Flashes Objectives: The study objective is to evaluate the effect of compound n^o 5 on the severity and frequency of hot flashes in postmenopausal women. Design and Setting: The Phase 2a clinical trial was conducted in 80 patients, divided over 2 treatment groups of 40 patients each. […] The Phase 2a trial was double blind and randomized. This Phase 2a trial was conducted on healthy menopausal women (40-65 y) experiencing at least 49 moderate or severe hot flashes or night sweats over a period of 7 consecutive days in the screening period (maximum of 4 weeks). The study was conducted on an ambulatory basis where patients were asked to visit the clinical site on the first day of dosing and at weeks 4, 8, 12 during the treatment period with a follow-up visit 2-3 weeks after conclusion of dosing. Hot flashes were to be reported daily in the morning and the evening using an electronic diary tool. These reported events were used to calculate the Hot Flash Frequency and the Hot Flash Score. The weekly number of hot flashes was calculated in two ways: cumulatively for all severity grades, and cumulatively but leaving out the number of mild hot flashes. Hot Flash Frequencies were calculated for weeks 4 and 12. The Hot Flash Score (HFS) is a composite score combining both frequency and severity. This score is an accepted method to assess the overall severity of the hot flash burden and is calculated weekly. The score is a general measure of the number and severity of all hot flashes occurred during a given time period. The Hot Flash Score (based on severity and frequency) is calculated as follows: • day-score=(number of mild hot flashes/day×1)+(number of moderate hot flashes/day×2)+(number of severe hot flashes/day×3) • The weekly hot flash score is calculated: […] Higher scores indicate worse symptoms.

The subject of a further assay is plasma testosterone. Put plainly: Plasma testosterone in gonad intact male rats. It counts as in vivo, rat. As to conditions: 3 mg/kg oral, vs vehicle, FIG. 1. Here is the method: Effect of Compounds of the Invention on Plasma Testosterone in Gonad Intact Male Rats
The study was designed to evaluate the effect of compounds of the invention on testosterone circulating levels following oral administration at 3 mg/kg on SD gonad intact male rats.
Briefly the experimental methods used for this study were as follows:
Two groups of non-fasted rats (male, Sprague-Dawley, 200 to 225 g; n=4 rats/group) with jugular vein cannulation, were dosed via a single oral administration of compounds of the invention at 3 mg/kg. The control group was dosed with the vehicle. Compounds of the invention were prepared in a dose formulation of pyrogen-free water with 0.5% methylcellulose. Blood samples were collected via the catheter implanted in the jugular vein at pre-determined intervals using EDTA-3K as anti-coagulant. Samples were chilled and rapidly processed by centrifugation to obtain corresponding plasma samples. Testosterone hormone levels were determined by RIA performed on plasma samples collected for all the groups at 5 minutes before administration (basal time), and at 45, 90, 150, 300, 480 minutes and 24 hours after dosing.

In assay [2] the test system is circulating levels of luteinizing hormone (LH). Put plainly: Castrated male rat model, circulating luteinizing hormone (LH). As to conditions: single oral dose less than or equal to 30 mg/kg, p<0.05. It counts as in vivo. Here is the method:
Castrated Male Rat Model to Assess the Effect of Compound of Invention on Circulating Levels of Luteinizing Hormone (LH)
The effect of compounds of the invention to inhibit luteinizing hormone (LH) secretion is determined by the following biological studies.
In humans and rodents, castration is well-precedented to permit heightened, persistent GnRH signaling and consequent elevation of circulating LH. Thus, a castrated rat model is used to provide a broad index for measurement of LH inhibition as a marker of test compound inhibition of the GnRH signaling pathway.
Castrated adult male Sprague-Dawley (SD) rats (150-175 g,) were purchased from Janvier (St Berthevin, France). All animals were housed 2 per cage in a temperature-controlled room (22±2° C.) and 50±5% relative humidity with a 12 hour/12 hour light/dark cycles (lights off at […]). The animals were allowed 3 weeks of postoperative recovery prior to study. Animals were handled on a daily basis. Standard diet and tap water were provided ad libitum. Animal cage litters were changed once a week. On the study day, animals were acclimated to the procedure room for a period of one hour prior to the initiation of the experiment.
Compounds of the invention were formulated in 0.5% methyl cellulose.
After basal sampling (TO) a single dose of compounds of the invention or vehicle was administrated orally to rats. Blood samples were then collected at several time points post dosing (45, 90, 150, 300 and 420 minutes). Blood samples were obtained via tail vein bleed, drawn into EDTA-containing tubes and centrifuged immediately. Plasma samples were collected and stored in a −80° C. freezer until assayed. Serum LH levels were determined using radioimmunoassay kit from RIAZEN—Rat L H, Zentech (Liege, Belgium). Baseline was defined as the initial basal blood sample.

For another assay, the target named is human NK-1 receptor (Homo sapiens (Human), UniProt P25103). Nature of the assay: Selectivity assay: [3H] substance P binding, human NK-1 receptor. As to conditions: 2 nM [3H] substance P, CHO membranes; read-out: hNK-1 (Ki). In a few lines: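 Competition binding on membranes from CHO cells expressing human NK-1 receptor, using 2 nM [3H] substance P in 50 mM Tris/5 mM MnCl2/150 mM NaCl/0.1% BSA, pH 7.4, with increasing compound concentrations. Incubated 60 min at 25 °C; bound radioactivity measured after filtration.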

The mark [3] stands for this setting: 90 mg BID, postmenopausal women.
Setting [4] is: Baseline, 90 mg BID group, moderate and severe hot flashes.

Chain of human NK-2 receptor (P21452 whole entry): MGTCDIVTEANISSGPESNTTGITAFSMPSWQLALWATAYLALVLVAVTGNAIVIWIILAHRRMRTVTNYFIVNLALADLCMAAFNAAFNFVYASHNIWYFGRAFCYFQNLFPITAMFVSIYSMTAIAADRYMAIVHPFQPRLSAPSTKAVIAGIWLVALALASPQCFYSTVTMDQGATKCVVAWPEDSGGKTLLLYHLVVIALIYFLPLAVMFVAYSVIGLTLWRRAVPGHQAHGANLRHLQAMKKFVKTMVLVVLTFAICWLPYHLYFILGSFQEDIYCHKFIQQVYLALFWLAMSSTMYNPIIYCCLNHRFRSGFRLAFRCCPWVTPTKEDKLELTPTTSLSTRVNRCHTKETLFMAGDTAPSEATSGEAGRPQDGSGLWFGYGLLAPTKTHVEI
Chain of human NK-1 receptor (P25103 whole entry): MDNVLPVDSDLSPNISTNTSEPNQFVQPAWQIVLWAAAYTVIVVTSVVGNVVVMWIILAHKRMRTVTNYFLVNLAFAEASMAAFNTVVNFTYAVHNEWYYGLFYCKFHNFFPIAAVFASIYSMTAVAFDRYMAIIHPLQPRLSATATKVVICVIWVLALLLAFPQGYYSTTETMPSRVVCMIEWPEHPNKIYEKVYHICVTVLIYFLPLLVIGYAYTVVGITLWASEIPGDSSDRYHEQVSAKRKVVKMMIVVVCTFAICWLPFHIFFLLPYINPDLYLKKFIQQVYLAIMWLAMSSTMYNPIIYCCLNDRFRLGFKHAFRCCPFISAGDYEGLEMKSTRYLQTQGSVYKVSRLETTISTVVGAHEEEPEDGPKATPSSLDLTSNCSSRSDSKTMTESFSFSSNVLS

The Ki is a dissociation constant, usually derived from enzyme kinetics or from competition with a known ligand. `Cc1nsc(-c2nnc3n2CCN(C(=O)c2ccc(F)cc2)[C@@H]3C)n1` [Compound 5, (R)-(4-fluorophenyl)(8-methyl-3-(3-methyl-1,2,4-thiadiazol-5-yl)-5,6-dihydro-[1,2,4]triazolo[4,3-a]pyrazin-7(8H)-yl)methanone]: the Ki at human NK-2 receptor and at human NK-1 receptor was greater than 30 µM throughout. For the same compound, in assay [1] (setting [3]), the “Frequency of hot flashes in comparison of placebo” value is listed as “significantly reduced”. In assay [1] (setting [3]), the “Score of hot flashes in comparison of placebo” value is recorded as “significantly reduced”. Further, the “Hot Flash Score (mean)” value stood at 29.08 in assay [1] (setting [4]); 2.96 in assay [1] (Week 4, 90 mg BID oral); 1.70 in assay [1] (Week 12, 90 mg BID oral). For the same compound, the “Hot Flashes Frequency (mean)” value came to 11.84 in assay [1] (setting [4]); 1.35 in assay [1] (Week 4, 90 mg BID oral); 0.79 in assay [1] (Week 12, 90 mg BID oral). Further, the plasma testosterone level result with plasma testosterone is given as “significantly suppressed”. In addition, the “circulating LH levels” value in assay [2] is “significantly suppressed”.

(Values after patent US20240199618A1, “NOVEL N-ACYL-[3-SUBSTITUTED]-[8-SUBSTITUTED]-5,6-DIHYDRO-[1,2,4]TRIAZOLO[4,3-a]PYRAZINES AS SELECTIVE NK-3 RECEPTOR ANTAGONISTS, PHARMACEUTICAL COMPOSITION, METHODS FOR USE IN NK-3 RECEPTOR-MEDIATED DISORDERS” (Ogeda SA, priority 2013, published 2024).)
